Laboratory results reported in patent US5340816A, “Hydroxymethyl(methylenecyclopentyl) purines and pyrimidines” (E. R. Squibb & Sons, Inc., priority 1993, dated 1994).

Tests used:
VZV = VZV antiviral plaque reduction assay in WI-38 cell culture monolayers; type: cell-based, varicella zoster virus, strain ELLEN; settings: Human alphaherpesvirus 3, WI-38 cells, 5-7 days at 37° C., read-out: ID50 for VZV
Experimental: (§1) Assays were performed in cell culture systems to determine the concentrations of compounds that are effective in preventing several kinds of viral infections.
(§2) HSV-1 (herpes simplex virus type 1, strain Schooler), HSV-2 (herpes simplex virus type 2, strain 186), VZV (varicella zoster virus, strain ELLEN), HCMV (human cytomegalovirus, strain AD 169 HIV (human immununodeficiency virus, strain HTLV-IIIB).
(§3) HSV-1, HSV-2, HCMV and VZV antiviral assays: Virus was adsorbed to WI-38 cell culture monolayers in 6 well culture plates (Costar, Cambridge, Mass.) for 1 hour prior to addition of maintenance medium containing duplicate dilutions of the test compound. Inhibition of plaque development was evaluated on fixed and stained monolayers after 4 days incubation at 37° C. for HSV-1 and HSV-2, and after 5-7 days incubation at 37° C. for HCMV and VZV. ID50 values were determined from the drug concentration which conferred at least a 50% plaque reduction compared to virus controls.

HSV-2 = HSV-2 antiviral plaque reduction assay in WI-38 cell culture monolayers; type: cell-based, herpes simplex virus type 2, strain 186; settings: Human alphaherpesvirus 2, 96 h, WI-38 cells, 4 days at 37° C., read-out: ID50 for HSV-2
Experimental: as §1, §2, §3

HCMV = HCMV antiviral plaque reduction assay in WI-38 cell culture monolayers; type: cell-based, human cytomegalovirus, strain AD 169; settings: Human betaherpesvirus 5, WI-38 cells, 5-7 days at 37° C., read-out: ID50 for HCMV
Experimental: as §1, §2, §3

HSV-1 = HSV-1 antiviral plaque reduction assay in WI-38 cell culture monolayers; type: cell-based, herpes simplex virus type 1, strain Schooler; settings: Human alphaherpesvirus 1, 96 h, WI-38 cells, 4 days at 37° C., read-out: ID50 for HSV-1
Experimental: as §1, §2, §3

[1] = Reduction of cell viability in uninfected MT-2 cells (XTT-PMS); type: cell-based; settings: human, 7 days
Experimental: HIV antiviral assay: Suspensions of MT-2 cells (S. Harada, et al., Science, 229, 563 (1985)) were infected at a multiplicity of infection of 0.03 TLID50 /cell with HIV (strain HTLV-III B). After adsorption for 1-2 hours at 37° C., infected cells were diluted in growth medium (RPMI 1640 containing the antibiotics penicillin plus streptomycin and 10% fetal calf serum) to give a final cell concentration of 1×10^4 viable cells/culture well in the presence of serial dilutions of the test compound, starting at 100 μg/ml. Triplicate samples at each drug concentration were used. Cultures of uninfected MT-2 cells were similarly prepared and incubated with serial dilutions of test compound in duplicate. All assays were performed in 96 well disposable cell culture plates. Untreated (infected and uninfected) cells were included as controls. […] Following incubation, viable cell numbers were counted in each well using a colorimetric assay following incubation of cells with XTT-PMS solution (XTT tetrazolium reagent plus phenazine methosulfate PMS).
(§4) Percent reduction of viral cytopathic effect (CPE) in drug treated compared to untreated virus infected cells, and percent reduction of cell viability in drug treated uninfected cells compared to untreated controls were calculated and plotted versus the drug concentrations tested. […]

HIV = HIV antiviral assay (reduction of viral cytopathic effect in MT-2 cells, XTT-PMS); type: cell-based, human immununodeficiency virus, strain HTLV-IIIB; settings: Human immunodeficiency virus 1, MT2, 168 h, 7 days, read-out: reduction in viral CPE (HIV)
Experimental: as §1, §2
HIV antiviral assay: Suspensions of MT-2 cells (S. Harada, et al., Science, 229, 563 (1985)) were infected at a multiplicity of infection of 0.03 TLID50 /cell with HIV (strain HTLV-III B). […] Following incubation, viable cell numbers were counted in each well using a colorimetric assay following incubation of cells with XTT-PMS solution (XTT tetrazolium reagent plus phenazine methosulfate PMS).
as §4

With `C=C1[C@H](CO)[C@@H](O)C[C@@H]1n1ccc(N)nc1=O` the IC50 (VZV) was 4.2 to 42 µM, the IC50 (HSV-2) was 2.1 to 4.2 µM and the IC50 (HCMV) was 2.1 to 4.2 µM. The IC50 (HSV-1) was 4.2 to 8.4 µM.
For `C=C1[C@H](CO)[C@@H](O)C[C@@H]1n1cc(/C=C/I)c(=O)[nH]c1=O`, the IC50 (VZV) was 0.05 to 0.14 µM, the IC50 (HSV-2) was 13 to 26 µM and the IC50 (HCMV) was > 260 µM. The IC50 (HSV-1) was 0.5 to 1.3 µM.
In the case of `C=C1[C@H](CO)[C@@H](O)C[C@@H]1n1cnc2c(N)ncnc21` [[1R-(1α,3α,5β)]-3-(6-Amino-9H-purin-9-yl)-5-hydroxy-2-methylenecyclopentanemethanol], the IC50 (VZV) is reported as > 96 µM, the IC50 (HSV-2) is reported as 191 to 383 µM and the cytotoxicity at 168 h, 27 µM ([1]; at 27 μM) is reported as 23%. For the same compound, the IC50 (HCMV) was > 38 µM, the inhibition at 27 µM (HIV; at 27 μM) was 50% and the IC50 (HSV-1) was 191 to 383 µM.
With `C=C1[C@H](CO)[C@@H](O)C[C@@H]1n1cc(I)c(=O)[nH]c1=O` [[1S-(1α,3α,4β)]-1-[4-Hydroxy-3-(hydroxymethyl)-2-methylenecyclopentyl]-5-iodo-2,4(1H,3H)pyrimidinedione] the IC50 (VZV) was 68 to 137 µM, the IC50 (HSV-2) was > 275 µM and the IC50 (HCMV) was 68 to 137 µM. For the same compound, the IC50 (HSV-1) was 6 to 14 µM.
In the case of `C=C1[C@H](CO)[C@@H](O)C[C@@H]1n1cc(C)c(=O)[nH]c1=O` [[1S-(1α,3α,4β)]-1-[4-Hydroxy-3-(hydroxymethyl)-2-methylenecyclopentyl]-5-methyl-2,4(1H,3H)-pyrimidinedione], the IC50 (VZV) is reported as 40 to 400 µM, the IC50 (HSV-2) is reported as 40 to 100 µM and the IC50 (HCMV) is reported as ≥ 396 µM. For the same compound, the IC50 (HSV-1) was 8 to 20 µM.
With `C=C1[C@H](CO)[C@@H](O)C[C@@H]1n1cnc2c(=O)[nH]c(N)nc21` [[1S-(1α,3α,4β)]-2-Amino-1,9-dihydro-9-[4-hydroxy-3-(hydroxymethyl)-2-methylenecyclopentyl]-6H-purin-6-one] the IC50 (VZV) was 18 to 36 µM, the IC50 (HSV-2) was 7.2 to 18 µM and the cytotoxicity at 168 h, 12 µM ([1]; at 12 μM) was 4%. It also gave an IC50 (HCMV) of 90 µM, an inhibition at 12 µM (HIV; at 12 μM) of 41% and an IC50 (HSV-1) of 3.6 µM.
In the case of `C=C1[C@H](CO)[C@@H](O)C[C@@H]1n1cc(/C=C/Br)c(=O)[nH]c1=O` [[1S-[1α(E),3α,4β)]-5-(2-Bromoethenyl)-1-[4-hydroxy-3-(hydroxymethyl)-2-methylenecyclopentyl]-2,4(1H,3H)-pyrimidinedione], the IC50 (VZV) is reported as 0.3 to 0.6 µM, the IC50 (HSV-2) is reported as 29 to 73 µM and the IC50 (HCMV) is reported as 291 µM. For the same compound, the IC50 (HSV-1) was 0.6 to 1.5 µM.
`C=C1[C@H](CO)[C@@H](O)C[C@@H]1n1cc(/C=C/Cl)c(=O)[nH]c1=O` [[1S-[1α(E),3α,4β]]-5-(2-Chloroethenyl)-1-[4-hydroxy-3-(hydroxymethyl)-2-methylenecyclopentyl]-2,4(1H,3H)-pyrimidinedione] showed an IC50 (VZV) of 1.7 µM, an IC50 (HSV-2) of 2 µM and an IC50 (HSV-1) of 0.07 to 0.16 µM.
